Assay results from ChEMBL document CHEMBL1201862, “PubChem BioAssay data set” (2004).
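Test compounds were applied to cells in 96-well plates for 48 hours at 5 doses. Abbreviation: GI50, concentration required for 50% inhibition of growth.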 The source made the active and inactive calls. No stated cut-off is given here; in the data, active = GI50 up to about 1.1 µM and inactive = higher.

Columns and labels:
Assay in all cases: growth of human tumour cells (NCI), 48 h
[1] = system: SR
[2] = system: HT-29
[3] = system: SNB-75
[4] = system: SN12C
[5] = system: A549
[6] = system: UACC-257
[7] = system: DU-145
[8] = system: OVCAR-5
[9] = system: Malme-3M
[10] = system: MOLT-4
[11] = system: A498
[12] = system: ACHN
[13] = system: LOX IMVI
[14] = system: T47D
[15] = system: RXF 393
[16] = system: NCI-H460
[17] = system: SF-539
[18] = system: HCC 2998
[19] = system: HL-60
[20] = system: BT-549

Compound | GI50 [1] | GI50 [2] | GI50 [3] | GI50 [4] | GI50 [5] | GI50 [6] | GI50 [7] | GI50 [8] | GI50 [9] | GI50 [10] | GI50 [11] | GI50 [12] | GI50 [13] | GI50 [14] | GI50 [15] | GI50 [16] | GI50 [17] | GI50 [18] | GI50 [19] | GI50 [20]
COc1cc2oc(=O)cc(C)c2c(OC)c1OC | > 100 µM (inactive) | > 100 µM (inactive) | 67.6 µM (inactive) | > 100 µM (inactive) | > 100 µM (inactive) | > 100 µM (inactive) | > 100 µM (inactive) | > 100 µM (inactive) | > 100 µM (inactive) | > 100 µM (inactive) | 30.8 µM (inactive) | > 100 µM (inactive) | > 100 µM (inactive) | – | – | – | – | – | – | –
COC(=O)C1C(=O)N(C)C(=O)N2CCCC12 (configuration not stated) | – | > 100 µM (inactive) | > 100 µM (inactive) | – | > 100 µM (inactive) | > 100 µM (inactive) | > 100 µM (inactive) | > 100 µM (inactive) | > 100 µM (inactive) | > 100 µM (inactive) | > 100 µM (inactive) | > 100 µM (inactive) | > 100 µM (inactive) | > 100 µM (inactive) | 71.8 µM (inactive) | > 100 µM (inactive) | > 100 µM (inactive) | > 100 µM (inactive) | > 100 µM (inactive) | –
CCCCCCCCCCCCCCCCCCNc1ccn(C2OC(COP(=O)(O)OCCCCCCCCCCCCCCCC)C(O)C2O)c(=O)n1 (configuration not stated) | > 100 µM (inactive) | > 100 µM (inactive) | 74.1 µM (inactive) | > 100 µM (inactive) | > 100 µM (inactive) | > 100 µM (inactive) | > 100 µM (inactive) | > 100 µM (inactive) | – | > 100 µM (inactive) | > 100 µM (inactive) | > 100 µM (inactive) | 82 µM (inactive) | > 100 µM (inactive) | > 100 µM (inactive) | – | > 100 µM (inactive) | > 100 µM (inactive) | 58.3 µM (inactive) | –
COc1ncnc2c(NC3OC(CO)C(O)C3O)ncnc12 (configuration not stated) | 0.0266 µM (active) | 0.0685 µM (active) | 0.735 µM (active) | 0.428 µM (active) | 0.131 µM (active) | 1.6 µM (inactive) | 0.407 µM (active) | 0.569 µM (active) | 2.74 µM (inactive) | 0.0471 µM (active) | 0.411 µM (active) | 0.201 µM (active) | 0.0445 µM (active) | 0.708 µM (active) | 0.794 µM (active) | 0.279 µM (active) | 0.246 µM (active) | 1.26 µM (inactive) | 0.0414 µM (active) | –
CS(=O)(=O)N1CC(CCl)c2ccc(NCCN)cc21 (configuration not stated) | – | > 100 µM (inactive) | 17.1 µM (inactive) | > 100 µM (inactive) | > 100 µM (inactive) | > 100 µM (inactive) | > 100 µM (inactive) | > 100 µM (inactive) | > 100 µM (inactive) | > 100 µM (inactive) | 69 µM (inactive) | 29.9 µM (inactive) | > 100 µM (inactive) | > 100 µM (inactive) | 35.4 µM (inactive) | > 100 µM (inactive) | 72.6 µM (inactive) | > 100 µM (inactive) | > 100 µM (inactive) | –
CC(=O)/C=C1/C(=O)C(CC(C)C)=C1CC(C)C | – | > 100 µM (inactive) | > 100 µM (inactive) | > 100 µM (inactive) | > 100 µM (inactive) | > 100 µM (inactive) | > 100 µM (inactive) | > 100 µM (inactive) | > 100 µM (inactive) | 92.3 µM (inactive) | > 100 µM (inactive) | > 100 µM (inactive) | > 100 µM (inactive) | > 100 µM (inactive) | > 100 µM (inactive) | – | > 100 µM (inactive) | – | > 100 µM (inactive) | –
Cc1cn(CC2=NCC(O)CN2)c(=O)[nH]c1=O (configuration not stated) | – | > 100 µM (inactive) | – | > 100 µM (inactive) | > 100 µM (inactive) | > 100 µM (inactive) | > 100 µM (inactive) | > 100 µM (inactive) | > 100 µM (inactive) | > 100 µM (inactive) | > 100 µM (inactive) | > 100 µM (inactive) | > 100 µM (inactive) | > 100 µM (inactive) | > 100 µM (inactive) | > 100 µM (inactive) | > 100 µM (inactive) | > 100 µM (inactive) | > 100 µM (inactive) | –
N#Cc1nc(C2=C(Cl)c3ccccc3OC2)[nH]c1C#N | – | 19.1 µM (inactive) | – | 27.5 µM (inactive) | 33.3 µM (inactive) | – | – | 38.5 µM (inactive) | – | 12.9 µM (inactive) | 24.3 µM (inactive) | 32.5 µM (inactive) | 16.9 µM (inactive) | – | 13.9 µM (inactive) | 22 µM (inactive) | 17.1 µM (inactive) | 16.3 µM (inactive) | 22.7 µM (inactive) | 18.9 µM (inactive)
N#CC(C(=O)C(=O)Nc1ccc(Cl)cc1)c1ccccc1 (configuration not stated) | > 100 µM (inactive) | > 100 µM (inactive) | > 100 µM (inactive) | > 100 µM (inactive) | > 100 µM (inactive) | > 100 µM (inactive) | – | > 100 µM (inactive) | > 100 µM (inactive) | > 100 µM (inactive) | > 100 µM (inactive) | > 100 µM (inactive) | > 100 µM (inactive) | – | > 100 µM (inactive) | > 100 µM (inactive) | > 100 µM (inactive) | > 100 µM (inactive) | > 100 µM (inactive) | –
COc1ccc(/C=C2\N=C(c3ccccc3)OC2=O)c(OCc2ccccc2)c1 | 21.7 µM (inactive) | – | – | > 100 µM (inactive) | 41.5 µM (inactive) | > 10 µM (inactive) | – | > 100 µM (inactive) | 39.4 µM (inactive) | 14.1 µM (inactive) | 16.3 µM (inactive) | > 100 µM (inactive) | 39.3 µM (inactive) | – | – | 53 µM (inactive) | 24 µM (inactive) | > 100 µM (inactive) | 40.4 µM (inactive) | –
O=C(Cc1nc2ccccc2o1)C(=O)Nc1cccc(Cl)c1 | > 100 µM (inactive) | > 100 µM (inactive) | > 100 µM (inactive) | > 100 µM (inactive) | > 100 µM (inactive) | > 100 µM (inactive) | – | – | > 100 µM (inactive) | > 100 µM (inactive) | > 100 µM (inactive) | > 100 µM (inactive) | – | – | > 100 µM (inactive) | > 100 µM (inactive) | > 100 µM (inactive) | > 100 µM (inactive) | > 100 µM (inactive) | –
CC(C)Oc1c(O)c2c3c(oc(=O)n3C=CC2c2ccccc2)c1OC(C)C (configuration not stated) | – | 24.2 µM (inactive) | 21.9 µM (inactive) | 36.5 µM (inactive) | 27.3 µM (inactive) | 25.1 µM (inactive) | 34 µM (inactive) | 34.4 µM (inactive) | – | 31 µM (inactive) | – | > 10 µM (inactive) | 37.8 µM (inactive) | 25.9 µM (inactive) | – | 14.7 µM (inactive) | 19.7 µM (inactive) | 19 µM (inactive) | 27 µM (inactive) | –
CC(C)CC(=O)CC(C)[C@]1(CCCOCc2ccccc2)C(=O)N2CCC3(C[C@@]24CCC[C@H]41)OCCO3 (some centres not stated) | > 10 µM (inactive) | – | – | > 10 µM (inactive) | – | – | – | > 10 µM (inactive) | – | > 10 µM (inactive) | > 10 µM (inactive) | – | – | – | – | > 10 µM (inactive) | > 10 µM (inactive) | > 10 µM (inactive) | > 10 µM (inactive) | –
O=C(C/C(=N\NC(=O)C[n+]1ccccc1)C(=O)Nc1nc2ccc([N+](=O)[O-])cc2s1)CC(c1ccccc1)c1c(O)c2ccccc2oc1=O (configuration not stated) | > 100 µM (inactive) | > 100 µM (inactive) | – | > 100 µM (inactive) | > 100 µM (inactive) | > 100 µM (inactive) | – | > 100 µM (inactive) | > 100 µM (inactive) | > 100 µM (inactive) | 46.3 µM (inactive) | > 100 µM (inactive) | – | – | > 100 µM (inactive) | > 100 µM (inactive) | > 100 µM (inactive) | > 100 µM (inactive) | > 100 µM (inactive) | –
CN(C)c1cccc2c1C(=O)C=CC21c2ccc(N(C)C)c3c(N(C)C)ccc(c23)C(c2ccccc2)C1c1ccccc1 (configuration not stated) | 7.82 µM (inactive) | 14.9 µM (inactive) | 8.26 µM (inactive) | 10.8 µM (inactive) | 27.5 µM (inactive) | 12.6 µM (inactive) | 42.5 µM (inactive) | 28.1 µM (inactive) | 18 µM (inactive) | 0.592 µM (active) | 6.68 µM (inactive) | 13.1 µM (inactive) | 15.2 µM (inactive) | – | 13 µM (inactive) | 24 µM (inactive) | 12.1 µM (inactive) | 17.6 µM (inactive) | 3.34 µM (inactive) | –
O=C(Nc1ccc(S(=O)(=O)/N=c2\ncccn2C(=O)C(C(F)(F)F)C(F)(F)F)cc1)C(C(F)(F)F)C(F)(F)F | – | > 100 µM (inactive) | 80.7 µM (inactive) | > 100 µM (inactive) | > 100 µM (inactive) | > 100 µM (inactive) | > 100 µM (inactive) | > 100 µM (inactive) | 49.2 µM (inactive) | > 100 µM (inactive) | > 100 µM (inactive) | > 100 µM (inactive) | > 100 µM (inactive) | > 100 µM (inactive) | > 100 µM (inactive) | > 100 µM (inactive) | > 100 µM (inactive) | > 100 µM (inactive) | > 100 µM (inactive) | –
O=C(/C=C/c1ccc(O)c(O)c1)OC1C[C@@](O)(C(=O)O)C[C@@H](O)[C@H]1OC(=O)/C=C/c1ccc(O)c(O)c1 (some centres not stated) | > 100 µM (inactive) | > 100 µM (inactive) | – | – | > 100 µM (inactive) | > 100 µM (inactive) | – | > 100 µM (inactive) | > 100 µM (inactive) | > 100 µM (inactive) | > 100 µM (inactive) | > 100 µM (inactive) | > 100 µM (inactive) | – | > 100 µM (inactive) | > 100 µM (inactive) | > 100 µM (inactive) | > 100 µM (inactive) | > 100 µM (inactive) | –
